Test results as given in patent US11793845B2, “Composition for ameliorating peripheral sensory neuropathy” (KINKI UNIVERSITY, priority 2016, dated 2023).

Assays:
[1] = system: Peripheral Sensory Neuropathy Induced by Paclitaxel in Mice; assay: von Frey test, paclitaxel-induced peripheral sensory neuropathy; format: in vivo; details: duloxetine 30 mg/kg daily
Text: (§1) The mice in the three groups in the above (1) were put in a cage and a filament having a strength of 0.16 g was pressed on the plantar surface of the leg to measure the number of times (a score) of avoidance response.
Male Balb/c mice of 6 to 7 weeks old were used as in Example 1. The mice were divided into three groups: a control group, a paclitaxel administration group, and a paclitaxel and Lentinus edodes mycelium extract administration group (paclitaxel+Lentinus edodes mycelium extract administration group). Paclitaxel was administered to each mouse once a day at a dose of 6 mg/kg. Further, the Lentinus edodes mycelium extract was administered to each mouse once a day at a dose of 2 g/kg.
Further, the number of times of administration was set to once a week (on Day 0, Day 7, and Day 14) for paclitaxel and daily (from Day 0 to Day 15) for the Lentinus edodes mycelium extract in both the von Frey test and the cold plate test below.
Evaluation was performed in the same manner as in the test with oxaliplatin. Referring to FIG. 3, the horizontal axis indicates an elapsed time after administration (days) and the vertical axis indicates the avoidance response (scores). Open circles with a solid line represent the control group. Filled circles with a solid line represent the group in which only paclitaxel was administered. Open squares with a dash line represent the group in which paclitaxel and the Lentinus edodes mycelium extract were administered (paclitaxel+Lentinus edodes mycelium extract administration group). When the difference with the control group was determined to be significant using a significance level of 5%, the data were marked by “*”.
(§2) In the present test, the mice were divided into six groups by a difference in test objects. As in Example 1, male Balb/c mice of 6 to 7 weeks old were used. […]

[2] = system: Peripheral Sensory Neuropathy Induced by Bortezomib in Mice; assay: von Frey test, bortezomib-induced peripheral sensory neuropathy; format: in vivo; details: duloxetine 30 mg/kg daily
Text: as §1
In the present test, the mice were divided into three groups by a difference in test objects. As in Example 1, male Balb/c mice of 6 to 7 weeks old were used. The mice were divided into a total of three groups, a control group, a bortezomib administration group, and a bortezomib and Lentinus edodes mycelium extract administration group (bortezomib+Lentinus edodes mycelium extract administration group).
Bortezomib was administered to each mouse once a day at a dose of 1 mg/kg. Further, the Lentinus edodes mycelium extract was administered to each mouse once a day at a dose of 2 g/kg.
Further, the number of times of administration was set to once a week (on Day 0, Day 7, and Day 14) for bortezomib and daily (from Day 0 to Day 15) for the Lentinus edodes mycelium extract in both the von Frey test and the cold plate test below.
Evaluation was performed in the same manner as in the test with oxaliplatin in Example 1. Referring to FIG. 7, the horizontal axis indicates an elapsed time after administration (days) and the vertical axis indicates the avoidance response (scores). Open circles with a solid line represent the control group. Filled circles with a solid line represent the group in which only bortezomib was administered. Open squares with a dash line represent the group in which bortezomib and the Lentinus edodes mycelium extract were administered at the same time (bortezomib+Lentinus edodes mycelium extract administration group). When the difference with the control group was determined to be significant using a significance level of 5%, the data were marked by “*”.
as §2

## CNCC[C@H](Oc1cccc2ccccc12)c1cccs1 [duloxetine]
[1]; 3-day delayed after paclitaxel
  avoidance score compared with paclitaxel administration group, von Frey test: almost the same avoidance score as that in the paclitaxel administration group
[1]; 6-day delayed after paclitaxel
  avoidance score, von Frey test: same tendency as that in the duloxetine 3-day delayed administration group
[2]; 3-day delayed after bortezomib
  avoidance score compared with bortezomib administration group, von Frey test: almost the same score as that in the bortezomib administration group
[2]; 6-day delayed after bortezomib
  avoidance score, von Frey test: same tendency as that in the duloxetine 3-day delayed administration group
